Reference: paper PMC11833736 (ACS Pharmacology & Translational Science, 2025)
“And” between values parts separate entries of the source, which are not always exact repeats. Equal entries are not always repeated.

What was measured:
U-87MG cells = test: Ru cellular uptake by ICP-MS; type: in vitro ADME; settings: 10 μM; for Ru cellular uptake: dark
Text: The cellular accumulation of Ru^2+ can provide additional information about how differences in anticancer efficacy may relate to the amount of the Ru prodrug in the cell before light activation. For instance, low uptake often leads to limited cytotoxicity due to limited access to the drug target. […] Similar results have been observed in A549 lung cancer cells previously.[56] […] For unknown reasons, it appears that the amine bridge in the i-diqa ligand facilitates the uptake of ruthenium compound [3](PF6)2.
Materials: 65% nitric acid (Suprapur, Merck) was used in the sample digestion process, while diluted 1% nitric acid (v/v) was employed as a carrying solution throughout the ICP measurements. For preparation of calibration and internal standards, National Institute of Standards and Technology (NIST)-traceable 1000 mg/L elemental standards were used (TraceCERT, Fluka). Approximately 18 MΩ cm^–1 water (Milli-Q) was employed in all sample preparation and analysis steps.
Instrumentation: Calibration standards were prepared in a Secuflow fume hood (SCALA) to prevent contamination by atmospheric particulates. The standard samples and measurement samples were analyzed for trace elements using the NexION 2000 (PerkinElmer) ICP-MS instrument equipped with a concentric glass nebulizer and a Peltier-cooled glass spray chamber. An SC2 DX autosampler (PerkinElmer) was connected to ICP-MS for sample introduction. Syngistix software for ICP-MS (v.2.5, PerkinElmer) was used for all data recording and processing. Five trace elemental calibration standards for ICP-MS analysis were prepared using NIST-traceable 1000 mg/L Ru standards: 0, 1, 5, 20, and 100 μg/L. Samples were analyzed without dilution in the original delivery containers to minimize the possibility of contamination. Here, 10 μg/L Rh and In were used as internal standards. To check the calibration, samples were analyzed with a blank measurement and a repeat measurement with one of the calibration standards.
Sample preparation: 1 mL of U-87MG cells were seeded in 12-well plates (Greiner, No. 665180; 400.000 cells per well). […] Afterward, the cells were trypsined, collected, and centrifuged. The resulting cell pellet was dissolved in 1 mL of PBS and counted via a BioRad TC20 automated cell counter. Afterward, the solution was centrifuged and washed again with PBS with subsequent centrifuging. This washing step was repeated twice. The resulting cell pellet was digested in 0.5 mL of 65% HNO3 overnight in a hot oven (90 °C). The solution was diluted with Milli-Q water to 10 mL, and the Ru content [ppb] was measured by ICP-MS.

[1] = Stability in the dark in the presence of L-glutathione (UV-vis); type: physicochemical; settings: water, 37 °C, 500 μM L-glutathione, spectra after 2 and 24 h
Description: The synthesis and characterization of all three complexes have been described earlier and can be found in refs ([56]) and ([57]). In water or OptiMEM cell medium, the complexes were also previously found to be stable in the dark for at least 24 h at 37 °C. Upon blue or green light irradiation (λ = 452 or 517 nm), they are activated by photosubstitution of the thioether ligand to afford the aqua ruthenium complex and the free thioether ligand.[56] […] The UV–vis spectra were then recorded after 2 and 24 h separately. […] Additionally, we could not observe any color change, which is typical when one of the ligands is exchanged against another one.
UV–vis spectroscopy experiments were performed on a Cary 60 Varian spectrometer equipped with a temperature control set to 310 K and a magnetic stirrer. The measurements were performed in a quartz cuvette containing 3 mL of solution. […] Then, the UV–vis spectrum was recorded without the presence of GSH. After 4 min, GSH was added (0.5 mM) and UV–vis spectra were recorded directly after and after 2 and 24 h, while the vial was kept in the dark and at 37 °C.

Row | SMILES | Uptake in % (U-87MG cells; 6 h) | Ru cellular uptake (U-87MG cells; 6 h incubation) | Uptake in % (U-87MG cells; 24 h) | Ru cellular uptake (U-87MG cells; 24 h incubation) | stability in the dark with GSH (UV-vis, in words) [1]
1 | CSCCO.F[P-](F)(F)(F)(F)F.F[P-](F)(F)(F)(F)F.[Ru+2].c1ccc(-c2cccc(-c3ccccn3)n2)nc1.c1ccc2cc(-c3cc4ccccc4cn3)ncc2c1 [[2](PF6)2] | 0.8% and 0.82% | 0.5 ng Ru/mio. cells and 0.54 ± 0.08 ng Ru/mio. cells | 1.5% | 0.82 ± 0.09 ng Ru/mio. cells | no isosbestic points suggesting ligand exchange were observed
2 | CSCCO.F[P-](F)(F)(F)(F)F.F[P-](F)(F)(F)(F)F.[Ru+2].c1ccc(-c2cccc(-c3ccccn3)n2)nc1.c1ccc2cc(Nc3cc4ccccc4cn3)ncc2c1 [[3](PF6)2] | 12.4% | 2.1 ng Ru/mio. cells and 2.14 ± 0.49 ng Ru/mio. cells | ~11.5% | 1.98 ng Ru/mio. cells and 1.98 ± 0.33 ng Ru/mio. cells | no isosbestic points suggesting ligand exchange were observed
